{
  "source": "patent US20210115000A1",
  "about": "“NILE RED DERIVATIVES FOR IMPROVED RATIOMETRIC IMAGING FOR NERVE SPECIFIC CONTRAST” (Oregon Health & Sciences University, priority 2018, published 2021)",
  "key": {"[1]": {"experiment": "Spectroscopic analysis: absorbance, emission and quantum yield of Nile Red derivatives", "assay_type": "physicochemical", "conditions": "in DMSO", "method": "Tandem liquid chromatography mass spectroscopy (LCMS) analysis (Agilent 1260 LC system with a 6224 time of flight (TOF) MS, Agilent, Santa Clara, Calif.) was performed using a 2.7 micron C18 column (4.6×50 mm, Agilent). High performance liquid chromatography (HPLC) purification (Agilent 1260 system with a preparative pump) was performed using a 5 micron C18 column (21.2×150 mm, Agilent). For both HPLC and LCMS, the mobile phase consisted of HPLC grade acetonitrile and water, treated with 0.1% formic acid. Spectroscopic analysis was performed on a Spectramax M5 spectrometer (Molecular Devices, Sunnyvale, Calif.) using a quartz cuvette with a 1 cm pathlength. Quantum yield was calculated according to equation (1).\nWhere Ø is the quantum yield, F is the integrated fluorescence intensity, f is the absorbance at the excitation wavelength and n is the refractive index of the solvent. S refers to the quantum yield standard (Rhodamine B)^25 and X refers to the unknown sample."}, "[2]": {"system": "U2OS human osteosarcoma cell line", "experiment": "Nile Red derivative cell staining and imaging, fixed and live cells", "assay_type": "cell-based", "conditions": "U2OS live, 1 μM, 5 min, imaged in staining solution", "method": "The U2OS human osteosarcoma cell line was cultured in Dulbecco's Modified Eagle Medium (DMEM, Thermo Fisher Scientific, Waltham, Mass.) with 10% fetal bovine serum (FBS, VWR, Radnor, Pa.) and 1% Penicillin/Steptomycin 100× (Thermo Fisher Scientific) at 37° C. in 5% CO2. For live cell imaging studies, Fluorobrite DMEM media (Thermo Fisher Scientific) was used in place of DMEM. For imaging studies, cells were grown in 96-well glass bottom plates (Cellvis, Mountain View, Calif.) for 48 hours, with a final confluence of <80%. Nile Red and its derivatives were prepared at 1-10 mM stock concentration in DMSO and diluted into media or buffer for cell staining and imaging studies.\nCell staining studies were completed on fixed and live U2OS cells using Nile Red and each synthesized Nile Red derivative described as follows. For fixed cell staining, cells were washed once with 1× phosphate buffered saline (PBS), then fixed with 4% paraformaldehyde (PFA) for 20 minutes at room temperature. The PFA was removed and each well was washed three times for 5 mins per wash (3×5 mins) with 1×PBS. The Nile Red fluorophores were diluted into 1×PBS to a final concentration of 1 μM, incubated for 5 minutes with the cells, and images were collected without washing. Live cell staining was completed using two methods. First, cells were washed once with Fluorobrite DMEM. The Nile Red fluorophore solution was prepared in Fluorobrite DMEM by diluting to a final concentration of 1 μM for staining, where cells were stained for 5 minutes. The fluorophore containing media was removed and the cells were fixed for 20 minutes using 4% PFA. Cells were then washed 3×5 mins with Fluorobrite DMEM prior to imaging. Second, cells were washed with Fluorobrite DMEM without FBS once for 5 minutes. Nile Red fluorophore solutions were prepared in Fluorobrite without FBS at 1 μM final concentration for cell staining. The cells were stained with the prepared solution for 5 minutes and imaged in the staining solution. All images were collected at their ideal exposure times to permit visualization of stained intracellular structures.\nAll ex vivo and cellular fluorescence and white light images were collected using a Zeiss AxioObserver inverted fluorescence microscope (Carl Zeiss, Oberkochen, Germany). All cell images were collected at 40× magnification and all tissue section images were collected at 10× magnification. Fluorescence excitation was completed using a Photofluor II broad band light source (89 North, Burlington, Vt.) filtered with a 545±12.5 nm bandpass excitation filter. Fluorescence images were collected using a 605±35 nm bandpass emission filter and a AxioCam 506 monochromo camera (Zeiss). All Filters were Purchased from Chroma Technologies (Bellows Falls, Vt.)."}, "[3]": {"system": "CD-1 mouse sciatic nerve and surrounding muscle and adipose tissues", "experiment": "Ex vivo tissue section staining, imaging and fluorescence quantification", "conditions": "100 μM, 40 min, sections with nerve, muscle, adipose", "method": "Cryosections of CD-1 mouse sciatic nerve and surrounding muscle and adipose tissues from unrelated experiments were cut from optimal cutting temperature (OCT, Fisher Scientific, Hampton, N.H.) embedded frozen tissues. Cryosectioned tissues were captured on superfrost plus slides (Fisher Scientific) at 10 μm thickness. The tissue sections were washed with 1×PBS for 2 minutes to remove OCT, and then fixed with 2% PFA for 15 mins. The tissue sections were then washed with 0.1% Tween 20 in 1×PBS (3×5 mins), followed by incubation with 100 μM of Nile Red and each Nile Red derivative formulated using 10% DMSO, 5% Kolliphore (Sigma Aldrich, St. Louis, Mo.), 63.75% FBS, and 21.25% 1× PBS as previously described.^26 Tissue sections were incubated with the formulated fluorophores for 40 minutes at room temperature, followed by washing with blank formulation not containing fluorophore (2×5 mins). Each tissue section was then washed with 1×PBS (2×5 mins), fixed for 15 minutes using 2% PFA, followed by a final wash with 1×PBS for 5 mins before mounting in glycerol (Fisher Scientific). Images were collected at an exposure time of 650 ms for all Nile Red and Nile Red derivative stained sections. Four tissue sections were stained for Nile Red and each Nile Red derivative, facilitating adipose to muscle and adipose to nerve contrast ratio quantification where tissue intensities were quantified using region of interest analysis with custom written MatLab code (The MathWorks, Natick, Mass.). For each tissue type, a representative area was selected, where a threshold based mask was set to determine tissue from background. The mean tissue intensity was calculated in adipose, nerve and muscle tissues as the intensity per second and used to calculate the adipose to nerve and adipose to muscle contrast ratios. All ex vivo and cellular fluorescence and white light images were collected using a Zeiss AxioObserver inverted fluorescence microscope (Carl Zeiss, Oberkochen, Germany). All cell images were collected at 40× magnification and all tissue section images were collected at 10× magnification. Fluorescence excitation was completed using a Photofluor II broad band light source (89 North, Burlington, Vt.) filtered with a 545±12.5 nm bandpass excitation filter. Fluorescence images were collected using a 605±35 nm bandpass emission filter and a AxioCam 506 monochromo camera (Zeiss). All Filters were Purchased from Chroma Technologies (Bellows Falls, Vt.)."}, "[4]": {"system": "sciatic nerve or brachial plexus nerve sites (adipose, nerve, muscle tissue)", "experiment": "In vivo imaging following direct/topical administration on rodent nerve sites", "set-up": "species or system male CD-1 mice", "conditions": "immediately following direct administration", "text": "In vivo images were acquired using a previously published, custom-built small animal fluorescence imaging system, described briefly here.^27 Fluorescent images were obtained using a Qimaging EXi Blue monochrome camera (Surrey, British Columbia, CA) with a removable Bayer mask for collection of co-registered color and fluorescence images. A Photofluor II broad band light source (89 North) was expanded onto the surgical field through a liquid light guide and used unfiltered for white light illumination. Nile Red and NR5 were excitated using a 545 t 12.5 nm bandpass filter, while fluorescence emission images were collected with a 605±35 nm bandpass filter. Oxazine 4 (Exciton, West Chester, Ohio) was used for nerve and adipose co-staining and ratiometic imaging studies. Oxazine 4 was excited using a 620±30 nm bandpass filter, while fluorescence emission images were collected through a 700±37.5 nm bandpass filter. Approval for the use of animals in the study was obtained from the Institutional Animal Care and Use Committee (IACUC) at Oregon Health and Science University (OHSU). In vivo staining studies were carried out on male CD-1 mice using an optimized direct/topical administration protocol.^2 Staining was performed concurrently on no more than two nerve sites (sciatic nerve or brachial plexus) per mouse. Nile Red and all Nile Red derivatives were formulated in a previously published co-solvent formulation (10% DMSO, 5% Kolliphor, 63.75% serum and 21.25% PBS^14) at a final concentration of 100 μM. Each formulated fluorophore was incubated for 5 minutes on the nerve site (n=4 nerve sites/fluorophore), followed by 9 short flushes with PBS. The nerve site was then incubated with blank co-solvent not containing fluorophore for 5 minutes, followed again by 9 short flushes with PBS."}},
  "data": [
    {"smiles": "CCN(CC)c1ccc2nc3c4cc(-c5ccc(C#N)cc5)ccc4c(=O)cc-3oc2c1", "note": "[NR12, 4-(9-(diethylamino)-5-oxo-5H-benzo[a]phenoxazin-2-yl)benzonitrile]", "values": [
      {"measurement": "Max Abs", "setting": "[1]", "result": 560, "unit": "nm"},
      {"measurement": "Max Em", "setting": "[1]", "result": 635, "unit": "nm"},
      {"measurement": "Stokes Shift", "setting": "[1]", "result": 75, "unit": "nm"},
      {"measurement": "structures observed in live cells without washing", "setting": "[2]", "result": "Prominent lipid droplet like structures"},
      {"measurement": "tissue staining specificity on mouse tissue sections", "setting": "[3]", "result": "adipose specificity"},
      {"measurement": "adipose to muscle ratio", "setting": "[4]", "result": "lower than Nile Red, adipose to muscle contrast was similar"},
      {"measurement": "adipose to nerve ratio", "setting": "[4]", "result": "increased contrast over control autofluorescence with similar adipose to nerve contrast"}
    ]}
  ]
}
